US8933230B2, “Phosphorus-containing group-substituted quinoline, its preparation process, medical composition containing the compounds and application” (priority 2011, dated 2015)

Key:
Test in all cases: KinomeScan kinase panel
Assay type in all cases: binding
[1] = target: T1, ABL1(H396P)-phosphorylated (Homo sapiens, UniProt P00519, H396P)
T1 construct: purchased DiscoveRx Corporation (KinomeScan)
Procedure, shortened: (§1)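 KinomeScan, 442 kinases incl. mutants; cpd 1000 nM; single-concentration inhibition.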

[2] = target: T2, ABL1(M351T)-phosphorylated (Homo sapiens, UniProt P00519, M351T)
T2 construct: purchased DiscoveRx Corporation (KinomeScan)
Procedure, shortened: as §1

[3] = target: T3, ABL1(T315I)-phosphorylated (Homo sapiens, UniProt P00519, T315I)
T3 construct: purchased DiscoveRx Corporation (KinomeScan)
Procedure, shortened: as §1

BIKE = target: T4, BIKE (Homo sapiens, UniProt Q9NSY1)
T4 construct: purchased DiscoveRx Corporation (KinomeScan)
Procedure, shortened: as §1

BLK = target: T5, BLK (Homo sapiens, UniProt P51451)
T5 construct: purchased DiscoveRx Corporation (KinomeScan)
Procedure, shortened: as §1

CDKL1 = target: T6, CDKL1 (Homo sapiens, UniProt Q00532)
T6 construct: purchased DiscoveRx Corporation (KinomeScan)
T6 sequence (Q00532 whole entry): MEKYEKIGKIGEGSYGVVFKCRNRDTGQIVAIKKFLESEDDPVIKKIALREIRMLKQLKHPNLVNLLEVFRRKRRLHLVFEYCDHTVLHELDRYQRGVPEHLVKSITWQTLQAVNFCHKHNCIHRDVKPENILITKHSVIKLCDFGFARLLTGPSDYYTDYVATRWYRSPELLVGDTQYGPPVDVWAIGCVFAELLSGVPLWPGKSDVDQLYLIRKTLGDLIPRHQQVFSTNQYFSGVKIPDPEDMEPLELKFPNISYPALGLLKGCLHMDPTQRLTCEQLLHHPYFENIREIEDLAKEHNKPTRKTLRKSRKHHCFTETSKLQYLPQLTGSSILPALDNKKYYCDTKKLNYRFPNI
Procedure, shortened: as §1

CLK4 = target: T7, CLK4 (Homo sapiens, UniProt Q9HAZ1)
T7 construct: purchased DiscoveRx Corporation (KinomeScan)
Procedure, shortened: as §1

CSR1 = target: T8, CSR1 (Homo sapiens, UniProt O95747)
T8 construct: purchased DiscoveRx Corporation (KinomeScan panel)
Procedure, shortened: as §1

EGFR(L747-S752del,P753S) = target: T9, EGFR(L747-S752del,P753S) (Homo sapiens, UniProt P00533, DEL747-752/P753S)
T9 construct: purchased DiscoveRx Corporation (KinomeScan)
Procedure, shortened: as §1

EGFR(S752-1759del) = target: T10, EGFR(S752-1759del) (Homo sapiens, UniProt P00533, DEL752-759)
T10 construct: purchased DiscoveRx Corporation (KinomeScan)
Procedure, shortened: as §1

EPHA1 = target: T11, EPHA1 (Homo sapiens, UniProt P21709)
T11 construct: purchased DiscoveRx Corporation (KinomeScan)
Procedure, shortened: as §1

EPHA3 = target: T12, EPHA3 (Homo sapiens, UniProt P29320)
T12 construct: purchased DiscoveRx Corporation (KinomeScan)
T12 sequence (P29320 21-983): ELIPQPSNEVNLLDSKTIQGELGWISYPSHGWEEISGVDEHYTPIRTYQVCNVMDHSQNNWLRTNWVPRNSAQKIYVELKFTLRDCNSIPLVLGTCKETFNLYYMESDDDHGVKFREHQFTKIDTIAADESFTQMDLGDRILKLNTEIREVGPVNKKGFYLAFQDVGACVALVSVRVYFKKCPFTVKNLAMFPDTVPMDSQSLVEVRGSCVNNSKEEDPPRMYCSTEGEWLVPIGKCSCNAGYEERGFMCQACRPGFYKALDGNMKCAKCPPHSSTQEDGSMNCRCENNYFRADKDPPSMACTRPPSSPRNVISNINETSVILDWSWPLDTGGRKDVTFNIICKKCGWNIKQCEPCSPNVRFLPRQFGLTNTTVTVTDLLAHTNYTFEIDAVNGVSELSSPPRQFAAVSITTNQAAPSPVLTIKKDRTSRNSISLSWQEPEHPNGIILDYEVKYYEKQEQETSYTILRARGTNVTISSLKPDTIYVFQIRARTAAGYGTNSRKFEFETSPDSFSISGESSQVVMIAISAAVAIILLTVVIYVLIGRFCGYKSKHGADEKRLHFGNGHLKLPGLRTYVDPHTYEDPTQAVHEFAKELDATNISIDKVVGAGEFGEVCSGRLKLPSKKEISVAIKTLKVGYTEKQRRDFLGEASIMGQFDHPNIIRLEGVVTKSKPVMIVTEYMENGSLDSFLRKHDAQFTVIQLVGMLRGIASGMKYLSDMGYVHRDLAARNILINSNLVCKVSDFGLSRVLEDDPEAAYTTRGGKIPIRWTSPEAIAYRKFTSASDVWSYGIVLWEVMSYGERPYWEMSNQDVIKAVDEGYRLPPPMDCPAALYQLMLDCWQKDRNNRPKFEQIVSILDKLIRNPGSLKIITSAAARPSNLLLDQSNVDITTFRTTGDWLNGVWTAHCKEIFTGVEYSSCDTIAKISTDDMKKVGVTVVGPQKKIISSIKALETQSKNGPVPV
Procedure, shortened: as §1

EPHA7 = target: T13, EPHA7 (Homo sapiens, UniProt Q15375)
T13 construct: purchased DiscoveRx Corporation (KinomeScan)
Procedure, shortened: as §1

ERN1 = target: T14, ERN1 (Homo sapiens, UniProt O75460)
T14 construct: purchased DiscoveRx Corporation (KinomeScan)
Procedure, shortened: as §1

FGFR3 = target: T15, FGFR3 (Homo sapiens, UniProt P22607)
T15 construct: purchased DiscoveRx Corporation (KinomeScan)
Procedure, shortened: as §1

INSR = target: T16, INSR (Homo sapiens, UniProt P06213)
T16 construct: purchased DiscoveRx Corporation (KinomeScan)
T16 sequence (P06213 28-1382): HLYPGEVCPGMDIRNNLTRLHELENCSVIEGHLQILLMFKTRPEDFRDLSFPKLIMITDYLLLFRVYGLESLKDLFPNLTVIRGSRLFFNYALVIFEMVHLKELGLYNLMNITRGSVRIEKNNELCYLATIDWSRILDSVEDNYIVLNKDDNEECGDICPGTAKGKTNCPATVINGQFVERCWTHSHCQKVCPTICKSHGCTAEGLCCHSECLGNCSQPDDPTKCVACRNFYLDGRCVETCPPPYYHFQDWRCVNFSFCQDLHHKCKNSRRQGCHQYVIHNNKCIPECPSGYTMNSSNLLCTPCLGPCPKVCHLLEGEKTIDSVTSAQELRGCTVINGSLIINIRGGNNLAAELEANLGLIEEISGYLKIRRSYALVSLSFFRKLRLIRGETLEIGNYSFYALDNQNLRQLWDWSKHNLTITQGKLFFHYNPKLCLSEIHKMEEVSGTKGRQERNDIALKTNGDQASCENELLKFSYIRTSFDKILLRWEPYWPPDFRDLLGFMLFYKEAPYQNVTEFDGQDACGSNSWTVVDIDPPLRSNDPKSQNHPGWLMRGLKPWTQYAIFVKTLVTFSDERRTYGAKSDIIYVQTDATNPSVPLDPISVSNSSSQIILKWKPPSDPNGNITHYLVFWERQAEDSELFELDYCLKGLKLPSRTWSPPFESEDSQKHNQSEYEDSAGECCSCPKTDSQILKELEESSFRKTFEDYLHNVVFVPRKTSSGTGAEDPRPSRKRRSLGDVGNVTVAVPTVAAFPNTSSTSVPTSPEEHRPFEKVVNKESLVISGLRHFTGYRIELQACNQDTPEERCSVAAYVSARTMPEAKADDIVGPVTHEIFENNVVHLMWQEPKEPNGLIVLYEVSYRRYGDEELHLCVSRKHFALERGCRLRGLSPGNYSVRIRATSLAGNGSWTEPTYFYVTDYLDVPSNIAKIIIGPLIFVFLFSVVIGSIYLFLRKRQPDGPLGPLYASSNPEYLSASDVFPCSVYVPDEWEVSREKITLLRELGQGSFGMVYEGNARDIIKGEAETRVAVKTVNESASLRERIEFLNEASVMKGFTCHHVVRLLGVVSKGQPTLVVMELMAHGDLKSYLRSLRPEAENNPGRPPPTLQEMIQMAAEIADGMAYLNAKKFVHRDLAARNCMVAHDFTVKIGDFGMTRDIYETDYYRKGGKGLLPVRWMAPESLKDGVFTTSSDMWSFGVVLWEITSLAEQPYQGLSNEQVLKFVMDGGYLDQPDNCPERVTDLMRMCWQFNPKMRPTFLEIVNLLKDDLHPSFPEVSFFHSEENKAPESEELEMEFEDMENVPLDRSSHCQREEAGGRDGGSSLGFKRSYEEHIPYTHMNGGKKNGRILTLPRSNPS
Procedure, shortened: as §1

IRAK4 = target: T17, IRAK4 (Homo sapiens, UniProt Q9NWZ3)
T17 construct: purchased DiscoveRx Corporation (KinomeScan)
Procedure, shortened: as §1

LRRK2 = target: T18, LRRK2 (Homo sapiens, UniProt Q5S007)
T18 construct: purchased DiscoveRx Corporation (KinomeScan)
Procedure, shortened: as §1

MAP3K4 = target: T19, MAP3K4 (Homo sapiens, UniProt Q9Y6R4)
T19 construct: purchased DiscoveRx Corporation (KinomeScan)
Procedure, shortened: as §1

MEK4 = target: T20, MEK4 (Homo sapiens, UniProt P45985)
T20 construct: purchased DiscoveRx Corporation (KinomeScan)
Procedure, shortened: as §1

NLK = target: T21, NLK (Homo sapiens, UniProt Q9UBE8)
T21 construct: purchased DiscoveRx Corporation (KinomeScan panel)
Procedure, shortened: as §1

P38-alpha = target: T22, P38-alpha (Homo sapiens, UniProt Q16539)
T22 construct: purchased DiscoveRx Corporation (KinomeScan panel)
Procedure, shortened: as §1

P38-gamma = target: T23, P38-gamma (Homo sapiens, UniProt P53778)
T23 construct: purchased DiscoveRx Corporation (KinomeScan panel)
Procedure, shortened: as §1

PCTK3 = target: T24, PCTK3 (Homo sapiens, UniProt Q07002)
T24 construct: purchased DiscoveRx Corporation (KinomeScan panel)
Procedure, shortened: as §1

PIK3C2G = target: T25, PIK3C2G (Homo sapiens, UniProt O75747)
T25 construct: purchased DiscoveRx Corporation (KinomeScan)
Procedure, shortened: as §1

PIK3CA(E542K) = target: T26, PIK3CA(E542K) (Homo sapiens, UniProt P42336, E542K)
T26 construct: purchased DiscoveRx Corporation (KinomeScan)
Procedure, shortened: as §1

PIK3CA(Q546K) = target: T27, PIK3CA(Q546K) (Homo sapiens, UniProt P42336, Q546K)
T27 construct: purchased DiscoveRx Corporation (KinomeScan)
Procedure, shortened: as §1

PIK3CD = target: T28, PIK3CD (Homo sapiens, UniProt O00329)
T28 construct: purchased DiscoveRx Corporation (KinomeScan)
T28 sequence (O00329 whole entry): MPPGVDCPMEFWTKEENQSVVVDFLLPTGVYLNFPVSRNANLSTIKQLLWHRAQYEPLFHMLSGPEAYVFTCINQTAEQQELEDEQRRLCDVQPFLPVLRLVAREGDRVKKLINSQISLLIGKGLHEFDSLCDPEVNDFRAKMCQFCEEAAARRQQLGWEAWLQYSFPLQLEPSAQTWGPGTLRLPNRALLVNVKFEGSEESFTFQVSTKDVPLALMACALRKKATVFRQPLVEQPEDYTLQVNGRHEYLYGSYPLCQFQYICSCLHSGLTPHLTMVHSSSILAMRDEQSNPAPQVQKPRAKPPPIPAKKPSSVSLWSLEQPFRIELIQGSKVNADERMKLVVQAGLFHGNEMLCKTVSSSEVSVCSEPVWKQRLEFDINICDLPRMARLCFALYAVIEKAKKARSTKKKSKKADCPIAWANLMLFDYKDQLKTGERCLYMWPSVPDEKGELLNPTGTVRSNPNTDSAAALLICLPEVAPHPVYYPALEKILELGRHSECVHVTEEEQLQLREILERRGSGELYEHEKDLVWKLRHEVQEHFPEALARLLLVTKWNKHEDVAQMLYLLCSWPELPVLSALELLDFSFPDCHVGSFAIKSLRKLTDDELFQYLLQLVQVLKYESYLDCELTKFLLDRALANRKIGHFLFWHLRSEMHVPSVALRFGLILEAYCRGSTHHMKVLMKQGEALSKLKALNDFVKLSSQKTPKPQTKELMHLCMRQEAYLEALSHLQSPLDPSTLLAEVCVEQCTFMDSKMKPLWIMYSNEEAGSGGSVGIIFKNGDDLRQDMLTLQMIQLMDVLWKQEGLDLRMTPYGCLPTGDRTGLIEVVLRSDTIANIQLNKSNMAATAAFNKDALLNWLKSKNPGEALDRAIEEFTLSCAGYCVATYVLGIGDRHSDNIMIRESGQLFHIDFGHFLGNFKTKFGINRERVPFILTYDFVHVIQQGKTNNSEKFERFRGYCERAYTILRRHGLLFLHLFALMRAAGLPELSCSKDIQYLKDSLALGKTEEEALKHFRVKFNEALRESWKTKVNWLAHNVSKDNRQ
Procedure, shortened: as §1

PIK3CG = target: T29, PIK3CG (Homo sapiens, UniProt P48736)
T29 construct: purchased DiscoveRx Corporation (KinomeScan)
Procedure, shortened: as §1

QSK = target: T30, QSK (Homo sapiens, UniProt Q9Y2K2)
T30 construct: purchased DiscoveRx Corporation
T30 sequence (Q9Y2K2 whole entry): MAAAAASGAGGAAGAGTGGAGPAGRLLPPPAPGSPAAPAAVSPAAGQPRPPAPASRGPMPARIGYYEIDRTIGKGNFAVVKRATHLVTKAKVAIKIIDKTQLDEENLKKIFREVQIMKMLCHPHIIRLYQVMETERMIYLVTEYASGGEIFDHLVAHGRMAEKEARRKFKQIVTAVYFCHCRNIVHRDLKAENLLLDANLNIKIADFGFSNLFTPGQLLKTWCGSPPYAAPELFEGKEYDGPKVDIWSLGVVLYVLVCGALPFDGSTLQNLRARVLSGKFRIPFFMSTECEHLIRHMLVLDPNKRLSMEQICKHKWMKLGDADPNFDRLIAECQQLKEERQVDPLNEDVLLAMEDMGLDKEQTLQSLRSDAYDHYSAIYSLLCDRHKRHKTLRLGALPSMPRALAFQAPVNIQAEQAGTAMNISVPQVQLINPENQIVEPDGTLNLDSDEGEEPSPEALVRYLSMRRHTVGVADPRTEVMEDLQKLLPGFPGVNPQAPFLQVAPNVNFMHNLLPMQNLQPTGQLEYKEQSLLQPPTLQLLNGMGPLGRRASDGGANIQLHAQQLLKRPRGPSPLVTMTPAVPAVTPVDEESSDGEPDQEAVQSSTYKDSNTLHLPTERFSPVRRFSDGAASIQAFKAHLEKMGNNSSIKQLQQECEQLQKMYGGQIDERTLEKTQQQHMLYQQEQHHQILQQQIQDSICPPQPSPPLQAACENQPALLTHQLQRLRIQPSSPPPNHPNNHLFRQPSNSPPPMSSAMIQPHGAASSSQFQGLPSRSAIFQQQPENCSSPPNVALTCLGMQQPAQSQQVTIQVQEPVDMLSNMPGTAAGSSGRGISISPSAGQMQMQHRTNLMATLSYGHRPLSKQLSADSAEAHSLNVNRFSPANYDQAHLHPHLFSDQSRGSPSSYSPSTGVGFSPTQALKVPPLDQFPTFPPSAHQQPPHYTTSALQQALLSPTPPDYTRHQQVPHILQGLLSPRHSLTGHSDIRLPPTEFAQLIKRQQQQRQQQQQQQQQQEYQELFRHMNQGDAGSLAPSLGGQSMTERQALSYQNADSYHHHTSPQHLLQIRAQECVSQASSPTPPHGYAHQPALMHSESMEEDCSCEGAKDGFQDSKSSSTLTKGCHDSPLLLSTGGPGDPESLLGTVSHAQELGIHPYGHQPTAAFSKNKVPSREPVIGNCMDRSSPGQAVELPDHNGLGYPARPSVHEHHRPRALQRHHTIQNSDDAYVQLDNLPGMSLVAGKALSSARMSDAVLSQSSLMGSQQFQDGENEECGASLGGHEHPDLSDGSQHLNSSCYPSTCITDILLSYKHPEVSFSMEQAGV
Procedure, shortened: as §1

[4] = target: T31, RPS6KA5(kin.Dom.1-N-termimal) (Homo sapiens, UniProt O75582)
T31 construct: kin.Dom.1; purchased DiscoveRx Corporation
Procedure, shortened: as §1

SgK110 = target: T32, SgK110 (Homo sapiens, UniProt P0C264)
T32 construct: purchased DiscoveRx Corporation (KinomeScan)
Procedure, shortened: as §1

TAOK1 = target: T33, TAOK1 (Homo sapiens, UniProt Q7L7X3)
T33 construct: purchased DiscoveRx Corporation (KinomeScan)
Procedure, shortened: as §1

ULK1 = target: T34, ULK1 (Homo sapiens, UniProt O75385)
T34 construct: purchased DiscoveRx Corporation (KinomeScan service)
Procedure, shortened: as §1

WEE1 = target: T35, WEE1 (Homo sapiens, UniProt P30291)
T35 construct: purchased DiscoveRx Corporation (KinomeScan service)
Procedure, shortened: as §1

CCOP(=O)(CN1CCC(COc2cc3nccc(Oc4ccc(NC(=O)C5(C(=O)Nc6ccc(F)cc6)CC5)cc4F)c3cc2OC)CC1)OCC [Example 10, N1-[4-[[7-[[1-(diethoxyphosphorylmethyl)-4-piperidinyl]methoxyl]-6-methoxyl-4-quinolyl]oxyl]-3-fluorophenyl]-N1′-(4-fluorophenyl)cyclopropane-1,1-dicarboxamide]
% Ctrl@1000 nM [1]: 63 % Ctrl | % Ctrl@1000 nM [2]: 42 % Ctrl | % Ctrl@1000 nM [3]: 75 % Ctrl | % Ctrl@1000 nM (BIKE): 100 % Ctrl | % Ctrl@1000 nM (BLK): 0.5 % Ctrl | % Ctrl@1000 nM (CDKL1): 100 % Ctrl | % Ctrl@1000 nM (CLK4): 46 % Ctrl | % Ctrl@1000 nM (CSR1): 96 % Ctrl | % Ctrl@1000 nM (EGFR(L747-S752del,P753S)): 67 % Ctrl | % Ctrl@1000 nM (EGFR(S752-1759del)): 82 % Ctrl | % Ctrl@1000 nM (EPHA1): 4.6 % Ctrl | % Ctrl@1000 nM (EPHA3): 6 % Ctrl | % Ctrl@1000 nM (EPHA7): 0.8 % Ctrl | % Ctrl@1000 nM (ERN1): 81 % Ctrl | % Ctrl@1000 nM (FGFR3): 69 % Ctrl | % Ctrl@1000 nM (INSR): 54 % Ctrl | % Ctrl@1000 nM (IRAK4): 100 % Ctrl | % Ctrl@1000 nM (LRRK2): 100 % Ctrl | % Ctrl@1000 nM (MAP3K4): 100 % Ctrl | % Ctrl@1000 nM (MEK4): 100 % Ctrl | % Ctrl@1000 nM (NLK): 100 % Ctrl | % Ctrl@1000 nM (P38-alpha): 53 % Ctrl | % Ctrl@1000 nM (P38-gamma): 100 % Ctrl | % Ctrl@1000 nM (PCTK3): 100 % Ctrl | % Ctrl@1000 nM (PIK3C2G): 98 % Ctrl | % Ctrl@1000 nM (PIK3CA(E542K)): 100 % Ctrl | % Ctrl@1000 nM (PIK3CA(Q546K)): 100 % Ctrl | % Ctrl@1000 nM (PIK3CD): 100 % Ctrl | % Ctrl@1000 nM (PIK3CG): 100 % Ctrl | % Ctrl@1000 nM (QSK): 100 % Ctrl | % Ctrl@1000 nM [4]: 100 % Ctrl | % Ctrl@1000 nM (SgK110): 100 % Ctrl | % Ctrl@1000 nM (TAOK1): 100 % Ctrl | % Ctrl@1000 nM (ULK1): 100 % Ctrl | % Ctrl@1000 nM (WEE1): 100 % Ctrl
